Reference: ChEMBL document CHEMBL5303573, “Mapping human microbiome drug metabolism by gut bacteria and their genes” (Nature, 2019)
Values belong to the compound of their own block, whether it stands above or below them.

Columns and labels:
[1] = The drug is tested on Salmonella typhimurium strain: LT2 for biotransformation. The drug concentrations were measured before and after a 12-h incubation by liquid-chromatography-coupled mass spectrometry (LC–MS); details: salmonella enterica subsp. enterica, 2 µM
[2] = The drug is tested on Proteus penneri strain: ATCC35198 for biotransformation. The drug concentrations were measured before and after a 12-h incubation by liquid-chromatography-coupled mass spectrometry (LC–MS); details: 2 µM
[3] = (§1) The drug is tested on the gut metagenome community of MV21 with ENA study accession number: PRJEB31790 and ENA sample accession number: SAMEA5537502 for biotransformation. The drug concentrations were measured over 9 timepoints collected between 0 and 24 hours of incubation by liquid-chromatography-coupled mass spectrometry (LC–MS); assay type: ADME; parameters: dose 2 uM, timepoint 0, 1, 2, 4, 6, 8, 12, 18, 24 hours; details: 2 µM
[4] = as §1, with “MV17” for “MV21”, “SAMEA5537498” for “SAMEA5537502”; assay type: ADME; parameters: dose 2 uM, timepoint 0, 1, 2, 4, 6, 8, 12, 18, 24 hours; details: 2 µM
Lipase = target: T1, Lipase (Bacteroides thetaiotaomicron, UniProt Q8A3J3); test: (§2) The drug is tested on Bacteroides thetaiotaomicron strain: VPI-5482 for biotransformation. The drug concentrations were measured before and after a 12-h incubation by liquid-chromatography-coupled mass spectrometry (LC–MS); assay type: ADME; parameters: dose 2 uM; details: 2 µM
T1 sequence (Q8A3J3 whole entry): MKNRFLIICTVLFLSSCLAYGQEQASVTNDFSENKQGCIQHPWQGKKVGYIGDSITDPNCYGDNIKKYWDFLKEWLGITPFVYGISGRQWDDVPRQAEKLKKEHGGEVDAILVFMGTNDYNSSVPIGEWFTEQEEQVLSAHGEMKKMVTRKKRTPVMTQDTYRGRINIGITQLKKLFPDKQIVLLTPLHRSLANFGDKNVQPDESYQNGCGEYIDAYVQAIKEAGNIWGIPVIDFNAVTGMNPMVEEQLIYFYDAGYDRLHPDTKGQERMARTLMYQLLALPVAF

[5] = target: T2, Sialic acid-specific acetylesterase (Bacteroides thetaiotaomicron, UniProt Q8A331); test: as §2; assay type: ADME; parameters: dose 2 uM; details: 2 µM
T2 sequence (Q8A331 whole entry): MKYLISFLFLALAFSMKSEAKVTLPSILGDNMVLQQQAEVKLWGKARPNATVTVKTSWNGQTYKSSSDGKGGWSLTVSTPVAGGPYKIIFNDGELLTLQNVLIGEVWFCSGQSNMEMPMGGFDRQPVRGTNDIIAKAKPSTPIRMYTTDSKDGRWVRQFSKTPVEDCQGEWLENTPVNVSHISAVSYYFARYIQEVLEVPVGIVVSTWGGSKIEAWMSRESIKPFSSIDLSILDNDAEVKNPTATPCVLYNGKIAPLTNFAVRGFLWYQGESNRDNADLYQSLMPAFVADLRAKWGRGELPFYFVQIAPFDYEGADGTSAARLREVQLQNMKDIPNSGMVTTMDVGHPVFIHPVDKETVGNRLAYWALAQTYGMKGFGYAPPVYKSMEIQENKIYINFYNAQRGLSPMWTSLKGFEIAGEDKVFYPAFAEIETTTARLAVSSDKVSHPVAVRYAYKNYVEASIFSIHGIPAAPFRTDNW

[6] = target: T3, Sialic acid-specific 9-O-acetylesterase (Bacteroides thetaiotaomicron, UniProt Q8A0D0); test: as §2; assay type: ADME; parameters: dose 2 uM; details: 2 µM
T3 sequence (Q8A0D0 whole entry): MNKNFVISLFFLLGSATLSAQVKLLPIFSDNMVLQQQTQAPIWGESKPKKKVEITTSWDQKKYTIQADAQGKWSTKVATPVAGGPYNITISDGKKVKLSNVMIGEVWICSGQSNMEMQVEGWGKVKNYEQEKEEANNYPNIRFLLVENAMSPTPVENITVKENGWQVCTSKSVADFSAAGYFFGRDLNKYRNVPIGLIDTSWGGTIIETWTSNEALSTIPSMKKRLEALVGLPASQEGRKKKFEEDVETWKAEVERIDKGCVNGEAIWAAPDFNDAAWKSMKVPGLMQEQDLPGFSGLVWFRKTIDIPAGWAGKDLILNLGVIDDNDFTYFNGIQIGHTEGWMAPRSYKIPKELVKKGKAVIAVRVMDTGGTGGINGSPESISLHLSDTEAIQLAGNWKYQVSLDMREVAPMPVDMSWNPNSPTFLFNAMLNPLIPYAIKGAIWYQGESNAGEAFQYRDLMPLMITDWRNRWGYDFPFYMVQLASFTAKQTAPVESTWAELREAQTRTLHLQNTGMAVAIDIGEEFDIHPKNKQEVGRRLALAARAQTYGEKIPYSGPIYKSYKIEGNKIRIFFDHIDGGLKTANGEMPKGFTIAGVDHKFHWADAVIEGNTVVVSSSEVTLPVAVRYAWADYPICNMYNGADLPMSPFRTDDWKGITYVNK

[7] = as §1, with “MV13” for “MV21”, “SAMEA5537494” for “SAMEA5537502”; assay type: ADME; parameters: dose 2 uM, timepoint 0, 1, 2, 4, 6, 8, 12, 18, 24 hours; details: 2 µM
[8] = as §1, with “MV08” for “MV21”, “SAMEA5537489” for “SAMEA5537502”; assay type: ADME; parameters: dose 2 uM, timepoint 0, 1, 2, 4, 6, 8, 12, 18, 24 hours; details: 2 µM
[9] = as §1, with “MV01” for “MV21”, “SAMEA5537482” for “SAMEA5537502”; assay type: ADME; parameters: dose 2 uM, timepoint 0, 1, 2, 4, 6, 8, 12, 18, 24 hours; details: 2 µM
[10] = as §1, with “MV07” for “MV21”, “SAMEA5537488” for “SAMEA5537502”; assay type: ADME; parameters: dose 2 uM, timepoint 0, 1, 2, 4, 6, 8, 12, 18, 24 hours; details: 2 µM
[11] = as §1, with “MV06” for “MV21”, “SAMEA5537487” for “SAMEA5537502”; assay type: ADME; parameters: dose 2 uM, timepoint 0, 1, 2, 4, 6, 8, 12, 18, 24 hours; details: 2 µM
[12] = as §1, with “MV25” for “MV21”, “SAMEA5537506” for “SAMEA5537502”; assay type: ADME; parameters: dose 2 uM, timepoint 0, 1, 2, 4, 6, 8, 12, 18, 24 hours; details: 2 µM
[13] = as §1, with “MV05” for “MV21”, “SAMEA5537486” for “SAMEA5537502”; assay type: ADME; parameters: dose 2 uM, timepoint 0, 1, 2, 4, 6, 8, 12, 18, 24 hours; details: 2 µM
[14] = as §1, with “MV18” for “MV21”, “SAMEA5537499” for “SAMEA5537502”; assay type: ADME; parameters: dose 2 uM, timepoint 0, 1, 2, 4, 6, 8, 12, 18, 24 hours; details: 2 µM

SMILES: CN1[C@@H]2CC[C@H]1C[C@@H](OC(=O)C(CO)c1ccccc1)C2 (stereo not given in full) [ATROPINE]
- Bacterial Biotransformation [1]: Compound NOT metabolized
- Bacterial Biotransformation [2]: Compound NOT metabolized

- Bacterial Biotransformation [1]: Compound NOT metabolized
SMILES: CC(CCc1ccccc1)NCC(O)c1ccc(O)c(C(N)=O)c1 (stereo not given) [LABETALOL]

- Bacterial Biotransformation [3]: Compound metabolized
- Bacterial Biotransformation [4]: Compound metabolized
- Bacterial Biotransformation (Lipase): Compound NOT metabolized
- Bacterial Biotransformation [5]: Compound NOT metabolized
- Bacterial Biotransformation [6]: Compound NOT metabolized
- Bacterial Biotransformation [7]: Compound metabolized
- Bacterial Biotransformation [8]: Compound metabolized
- Bacterial Biotransformation [9]: Compound metabolized
- Bacterial Biotransformation [10]: Compound metabolized
- Bacterial Biotransformation [11]: Compound metabolized
- Bacterial Biotransformation [12]: Compound metabolized
- Bacterial Biotransformation [13]: Compound metabolized
- Bacterial Biotransformation [14]: Compound metabolized
SMILES: C#C[C@]1(OC(C)=O)CC[C@H]2[C@@H]3CCC4=CC(=O)CC[C@@H]4[C@H]3CC[C@@]21C [NORETHINDRONE ACETATE]

- Bacterial Biotransformation [1]: Compound NOT metabolized
- Bacterial Biotransformation [2]: Compound NOT metabolized
SMILES: C#C[C@]1(OC(C)=O)CC[C@H]2[C@@H]3CCC4=C/C(=N/O)CC[C@@H]4[C@H]3CC[C@@]21CC [NORGESTIMATE]

- Bacterial Biotransformation [2]: Compound NOT metabolized
SMILES: O=C(CCCN1CCC(O)(c2ccc(Cl)cc2)CC1)c1ccc(F)cc1 [HALOPERIDOL]

- Bacterial Biotransformation [3]: Compound NOT metabolized
- Bacterial Biotransformation [4]: Compound NOT metabolized
- Bacterial Biotransformation (Lipase): Compound NOT metabolized
- Bacterial Biotransformation [5]: Compound NOT metabolized
- Bacterial Biotransformation [6]: Compound NOT metabolized
- Bacterial Biotransformation [7]: Compound NOT metabolized
- Bacterial Biotransformation [8]: Compound NOT metabolized
- Bacterial Biotransformation [9]: Compound NOT metabolized
- Bacterial Biotransformation [10]: Compound NOT metabolized
- Bacterial Biotransformation [11]: Compound NOT metabolized
- Bacterial Biotransformation [12]: Compound NOT metabolized
- Bacterial Biotransformation [13]: Compound NOT metabolized
- Bacterial Biotransformation [14]: Compound NOT metabolized
SMILES: COc1ccc([C@@H]2Sc3ccccc3N(CCN(C)C)C(=O)[C@@H]2OC(C)=O)cc1 [DILTIAZEM]

SMILES: Cc1ccc(NC(=O)c2ccc(CN3CCN(C)CC3)cc2)cc1Nc1nccc(-c2cccnc2)n1 [IMATINIB]
- Bacterial Biotransformation [2]: Compound NOT metabolized

- Bacterial Biotransformation (Lipase): Compound NOT metabolized
- Bacterial Biotransformation [5]: Compound NOT metabolized
- Bacterial Biotransformation [6]: Compound NOT metabolized
SMILES: C#C[C@]1(O)CC[C@H]2[C@@H]3CCC4=CC(=O)CC[C@@H]4[C@H]3CC[C@@]21CC [LEVONORGESTREL]

- Bacterial Biotransformation [3]: Compound metabolized
- Bacterial Biotransformation [4]: Compound metabolized
- Bacterial Biotransformation (Lipase): Compound NOT metabolized
- Bacterial Biotransformation [5]: Compound metabolized
- Bacterial Biotransformation [6]: Compound metabolized
- Bacterial Biotransformation [7]: Compound metabolized
- Bacterial Biotransformation [8]: Compound metabolized
- Bacterial Biotransformation [9]: Compound metabolized
- Bacterial Biotransformation [10]: Compound metabolized
- Bacterial Biotransformation [11]: Compound metabolized
- Bacterial Biotransformation [12]: Compound metabolized
- Bacterial Biotransformation [13]: Compound metabolized
- Bacterial Biotransformation [14]: Compound metabolized
SMILES: CC(=O)OCC(CCn1cnc2cnc(N)nc21)COC(C)=O [FAMCICLOVIR]

- Bacterial Biotransformation (Lipase): Compound NOT metabolized
- Bacterial Biotransformation [5]: Compound NOT metabolized
- Bacterial Biotransformation [6]: Compound NOT metabolized
SMILES: N#Cc1ccc2c(c1)N(CCCN1CCC(O)CC1)c1ccccc1S2 [PERICIAZINE]

- Bacterial Biotransformation [1]: Compound NOT metabolized
SMILES: COc1ccc2cc([C@H](C)C(=O)O)ccc2c1 [NAPROXEN]

- Bacterial Biotransformation [1]: Compound NOT metabolized
- Bacterial Biotransformation [2]: Compound NOT metabolized
SMILES: COC(=O)Nc1nc2ccc(C(=O)c3ccccc3)cc2[nH]1 [MEBENDAZOLE]
